Row | SMILES | melting point
1 | Nc1ncc2c(n1)CCC(NC(=O)[C@@H]1CCCN1C(=O)[C@@H](Cc1ccccc1)NS(=O)(=O)Cc1ccccc1)C2 (stereo not given in full) | 117 to 120 °C
2 | CCOC(=O)CCNC(=O)Nc1ccncc1 | 95 °C
3 | CCOCn1c(C(F)(F)F)nc2cc(Cl)c(Cl)cc21 | 89 to 92 °C
4 | OCCN1CC=C(c2c[nH]c3ccccc23)CC1 | 164 to 165 °C
5 | COc1nc(CO)ccc1CN1CC1C#N (stereo not given) | 68 to 70 °C
6 | CN1CCN(C2=Nc3ccccc3Cn3cccc32)CC1 | 139 to 141 °C
7 | CN1C(=O)C(NC(=O)NC2CCCCC2)N=C(c2ccccc2)c2ccccc21 (stereo not given) | 287 to 288 °C
8 | Cc1noc(-c2ccc(I)cc2)n1 | 136 to 137 °C
9 | CCOc1ccc2c(c1)c(I)c1n2CCC1 | 128 to 129 °C
10 | CC1(C)OCCC2C(C3(O)CCSCC3)C(=O)N21 (stereo not given) | 133 to 134 °C
11 | C1=C(c2ccc3c(c2)OCCO3)CCN(CCc2cccc3ccccc23)C1 | 170 to 180 °C
12 | O=C(O)c1cc(F)cc(-c2cccc3cc(Cc4cc(F)cc(Cl)c4)sc23)c1 | 168 to 170 °C
13 | COc1c(C#N)ccc2c1Cc1ccccc1CS2 | 117 to 118 °C
14 | CCCCOc1cc(CCS(N)(=O)=O)n(Cc2ccc(Cl)cc2Cl)n1 | 134 to 136 °C
15 | C=CCSC(C(=O)NC(C)=O)C(c1ccccc1)(c1ccccc1)c1ccccc1 (stereo not given) | 193 to 194 °C
16 | CNC(=O)NCCSCc1[nH]cnc1C | 158 to 159 °C
17 | COCN(c1cccc2cc(C(N)=O)n(COC)c12)S(=O)(=O)c1cccs1 | 203 to 204 °C
18 | CC(C)(C)OC(=O)CC(Cc1ccccc1)NC(=O)C1Cc2ccccc2N1S(=O)(=O)c1ccc(-c2ccc(F)cc2)cc1 (stereo not given) | 67 to 73 °C
19 | CCCCCCCCCCCCCCOc1cccc(CC(=O)Nc2ccccc2CO)c1 | 100 to 103 °C
20 | COc1ccc(C(=O)c2ccnn2Cc2ccccc2)c(Cl)c1Cl | 102 to 105 °C
21 | O=Cc1ccc(CO)cn1 | 75 °C
22 | CCCc1c(OCCOCCC(=O)OC)ccc(C(C)=O)c1O | 48 to 50 °C
23 | COC(=O)COc1ccc(C(C)CNS(=O)(=O)c2ccccc2)cc1F (stereo not given) | 112 to 113 °C
24 | CCOC(=O)C1(NC(=O)OCc2ccccc2)CC(=O)NC1=O (stereo not given) | 105 to 106 °C
25 | O=C(O)c1ccc(-c2noc(-c3ccc(C(F)(F)F)cc3)n2)cc1 | 286 to 287 °C
26 | CC(=O)OC(C)c1ccc(CCOc2ccc(CC3SC(=O)NC3=O)cc2)nc1 (stereo not given) | 143 to 144 °C

Row | SMILES | melting point
27 | CS(=O)(=O)Nc1ccc(OCCCI)cc1 | 109 to 111 °C
28 | CC1(C)Sc2nccn2C1=NOC(=O)CNSCNC(=O)ON=C1n2ccnc2SC1(C)C | 177 to 180 °C
29 | C#CCN1CCN(C(C)=O)CC1 | 63 to 65 °C
30 | O=CNNc1ccc(NC(=S)N2CC=CC2)cc1 | 218 to 220 °C
31 | NNc1nc2c(Cl)cccc2s1 | 232 to 235 °C
32 | O=C1Cc2cc(F)ccc2Sc2ccccc21 | 98 to 100 °C
33 | CC(=O)C(O)C1OC(n2cc(Br)c(=O)[nH]c2=O)CC1(O)C(C)=O (stereo not given) | 116 to 120 °C
34 | Sc1nccn1Cc1ccc(Cl)cc1 | 187 to 189 °C
35 | CN(C)c1cc(C(O)CNC(C)(C)C)ccc1O (stereo not given) | 108 to 110 °C
36 | CN(C)CCc1ccc([N+](=O)[O-])c2[nH]ncc12 | 145 to 146 °C
37 | C[C@H]1Oc2ccc(F)cc2NC(=O)[C@H]1N | 173 to 177 °C
38 | O=C(O)C1CCCC1c1ccc2c(c1)OC[C@H](Cc1ccccc1)[C@H]2O (relative stereo) | 129 to 130 °C
39 | N#Cc1c(NCc2ccccc2)n[nH]c1N | 150 to 152 °C
40 | O=C1CCCC(C(Sc2ccccc2)c2ccccc2)O1 (stereo not given) | 82 to 84 °C
41 | c1cc2[nH]ncc2nc1N1CCCCC1 | 217 to 218 °C
42 | CCc1nc2c(cnn2CC)c(NC2CCOCC2)c1CNC(=O)c1cccc(C(=O)NCc2cc(Cl)cc(-c3cccc(CN4CCNC(C)C4)c3)c2)c1 (stereo not given) | 119 to 121 °C
43 | O=C1C(=O)c2ccccc2C2=C1SCC(CN1CCC3(CC1)OCCO3)O2 (stereo not given) | 202 to 204 °C
44 | Cn1ncc(C(=O)N2CCC2)c1C(=O)Nc1ccn2nc(-c3ccccc3)nc2c1 | 243 to 245 °C
45 | CCOC(=O)C1(CCCN(C)C)CCCCC1(O)c1ccccc1 (stereo not given) | 97 to 99 °C
46 | O=C(O)c1c([N+](=O)[O-])cccc1[N+](=O)[O-] | 200 to 202 °C
47 | O=c1oc2ccc(F)cc2c(CBr)c1Br | 125 to 127 °C
48 | CC1=CC(=C(C#N)C#N)C=C(C)N1CCOCCCl | 148 to 149 °C
49 | COc1ccccc1SC(c1ccccc1)c1c(O)cc(-c2ccccc2)oc1=O (stereo not given) | 165 to 170 °C
50 | CCOC(=O)CCCCN(C(=O)c1ccc(Cl)cc1)c1cccc2ccccc12 | 74 to 75 °C
51 | O=c1n(CCO)c2cc(Br)c(Br)c(Br)c2n1CCO | 201 to 204 °C

More lines, now with the values ahead:

Row | melting point | SMILES
52 | 278 to 279 °C | Cc1c(C(=O)O)cnn1-c1nc(-c2ccc(Cl)c(Cl)c2)cs1
53 | 147 °C | CC(C)n1nc(-c2cc(C(C)(C)C)c(O)c(C(C)(C)C)c2)c2cccnc21
54 | 238 to 241 °C | Cc1cc(Nc2ccc(C(=O)O)cc2)c2[nH]ncc2n1
55 | 170 °C | Cn1cncc1C(O)(c1ccc(C=O)cc1)c1ccc2c(c1)c(-c1cccc(Cl)c1)nc1nnnn12 (stereo not given)
56 | 144 to 149 °C | CC(C)c1ccc(C(=O)Cc2ccccc2C(F)(F)F)c(C(C)C)c1OS(N)(=O)=O
57 | 205 to 206 °C | COC(=O)Nc1nccc(Oc2ccc3c(C(=O)Nc4ccc(CN5CCN(C)CC5)c(C(F)(F)F)c4)csc3c2)n1
58 | 284 to 288 °C | Cc1cc(C)c2ncn(/C=C/C(=O)O)c(=O)c2c1
59 | 86 °C | Cc1ccc2cc(-c3ccc(F)cc3F)ccc2n1
60 | 191 to 193 °C | COCc1nc2c(N)nc3cc(CCC#N)ccc3c2n1CC(C)(C)O
61 | 191 to 193 °C | COc1cc(-c2nc(NC(C)C)c3c(C)c(C#N)sc3n2)cc(OC)c1OC
62 | 134 to 135 °C | CCOC(=O)CCc1cccc(NC(=O)c2cc(-c3ccc(C(F)(F)F)cc3)oc2C)c1
63 | > 300 °C | O=c1c2ccc(O)cc2oc2c1oc1c3ccccc3ccc21
64 | 192 °C | Cc1ccccc1-c1nccc2c(CC(=O)O)cccc12
65 | 142 °C | COc1cccc(OC)c1-c1ccc(C[C@H](NC(=O)c2c(Cl)cc(-c3nccs3)cc2Cl)C(=O)O)cc1
66 | 214 to 215 °C | COc1ccc2c(ccn3c(C(F)(F)F)nnc23)c1
67 | 81 to 82 °C | Cc1ccc(-c2ncncc2Br)cc1
68 | 143 to 146 °C | CC(C)c1cc(C(C)C)c(CC(=O)NS(=O)(=O)Oc2c(C(C)C)cc(N(CCO)CCO)cc2C(C)C)c(C(C)C)c1
69 | 59 °C | CCOC(COc1ccc2c(-c3ccccc3F)noc2c1Cl)OCC
70 | 190 to 192 °C | CCCc1cc(=O)oc2cc(O)c3c(c12)OC(C)(C)C=C3
71 | 79 to 83 °C | Cc1c(C)c2c(c(C)c1NCc1ccccc1)OC(C)(C)C2=O
72 | 149 to 151 °C | COc1nc(C)cnc1NS(=O)(=O)c1cccnc1-c1ccc(OC(C)C(=O)O)cc1 (stereo not given)
73 | 173 °C | COc1ccc(C(=O)NC(C)(C#N)c2ccccn2)cc1 (stereo not given)
74 | 114 to 116 °C | CC(O)c1cc(I)c(O)c(Cl)n1 (stereo not given)
75 | 89 to 90 °C | CC1(C)OC(c2ccc(S(C)(=O)=O)cc2Cl)=C(c2ccccc2)C1=O

From a melting point compilation (Tetko et al.; mined from patent text by program, amines drawn as free bases though some values may be those of a salt)
